# From patent US20250018019A1, “TREATMENT OF INTERFERON DRIVEN INFLAMMATION” (The Provost, Fellows, Foundation Scholars and the other …, priority 2023, published 2025)
# Structures can show the parent of a compound that is named as a salt.
# Assays:
# BMDMs = experiment: RT-qPCR gene expression in BMDMs; type: cell-based, mouse; settings: for IL-1β expression / Il10 expression / Tnfa expression: BMDMs pre-treated 3 h; for Ifnb1 expression following Nrf2 silencing: Nrf2 siRNA
# Procedure: All compounds used DMSO as a vehicle except for 4-hydroxy tamoxifen (EtOH), NAC (PBS), and AOAA for tracing experiments (Media). LPS was used at a concentration of 100 ng/ml for indicated timepoints (2, 3, 4, 6, 8, 24, 48 h). FHIN1 (10 or 20 μM), MMF (50 or 100 μM), DMF (25 μM), AOAA (5 mM), oligomycin (10 μM), CCCP (50 μM) NAC (1 mM), and IMT1 (10 μM) pre-treatments were performed for 3 h prior the addition of LPS. Cells were treated with valinomycin (10 nM) 15 mins before LPS stimulation. Anti-CD210 or IgG control (10 μg/ml) antibodies were added to cells 1 h prior to LPS stimulation. Recombinant mouse IL-10 protein (100 ng/ml) was added to cells at the same time as LPS. Cells were treated with IFN-B1 (220 ng/ml) for 3 h. Cells were treated with C-178 (1 μM) 1 h prior to LPS stimulation or transfection with 2′3′-cGAMP (1.5 μg/ml) for 4 hrs to achieve cGAS-STING activation. Cells were treated with ODN 2088 (1 μM) for 1 hr prior to LPS stimulation or transfection with CPG ODN 1826 (1.5 μg/ml) to achieve TLR9 activation. 3 different timepoints of 4-hydroxy tamoxifen (TAM) (600 nM or 2 μM) or EtOH treatment were performed-these are specified in the individual figure legends. For ‘48 h’ treatments EtOH/TAM was added on day 5 of 6 during the BMDM differentiation protocol. On day 6 they were plated with EtOH/TAM (left overnight) and treated the following day. For ‘72 h’ treatments EtOH/TAM was added on day […] of 6 during the BMDM differentiation protocol. On day 6 they were plated with EtOH/TAM (left overnight) and treated the following day. For ‘96 h’ treatments EtOH/TAM was added on day […] of 6 during the BMDM differentiation protocol. On day 6 they were plated with EtOH/TAM and treated 2 days later.
# RNA extraction from cells was carried out using a Purelink™ RNA kit (Invitrogen) according to the manufacturer's instructions. BMDMs were treated as required, and following treatment were instantly lysed in 350 μl RNA lysis buffer. Isolated RNA was quantified using a NanoDrop 2000 spectrophotometer, and RNA concentration was normalised to the lowest concentration across all samples with RNAse-free water. If necessary, samples were DNAse-treated after quantification using DNAse I (Thermo Fisher) according to the manufacturer's instructions. Isolated RNA samples were normalised and converted into cDNA using the High-Capacity cDNA Reverse Transcription Kit (Thermo Fisher) according to manufacturer's instructions. 10 μl of RNA (at a maximum concentration of 100 ng/μl) was added to 10 μl of reverse transcription master mix to complete the reaction mixture. Real-time quantitative PCR was performed on the cDNA generated in the previous step, using primers designed in-house and ordered from Eurofins Genomics, as detailed in Table S2. The reaction was performed in a 96-well qPCR plate by a 7500 Fast Real-Time PCR machine (Thermo Fisher). Relative expression (2^−ΔΔCT) was calculated from the CT values for each sample and gene of interest.
# Pre-designed silencer select siRNAs for Cgas (s103166), Tmem173 (s91058), Tlr3 (s100579), Tlr9 (s96268), As/(s99640), Tlr7 (s100720), Ddx58 (s106376), Ifih1 (s89787), Nrf2 (s70522), Atf4 (s62689) and negative control (4390843) were ordered from Thermo Fisher. siRNA sequences are given in Table S2. Cells were transfected with 50 nM siRNA using 5 μl lipofectamine RNAiMAX according to manufacturer's instructions (Thermo Fisher). Cells were transfected in medium without serum and antibiotics which was replaced with complete medium 8 hours later. Cells were subsequently left for at least a further 12 hours prior to treatment.
# human PBMCs = experiment: RT-qPCR gene expression in human PBMCs; type: cell-based; settings: LPS-stimulated human PBMCs, LPS 4 h
# Procedure: Human blood samples from healthy donors were collected and processed at the School of Biochemistry and Immunology in TBSI (TCD). Blood samples were obtained anonymously and written informed consent for the use of blood for research purposes has been obtained from the donors. All the procedures involving experiments on human samples have been approved by the School of Biochemistry and Immunology Research Ethics Committee (TCD). Experiments were conducted according to the TCD guide on good research practice, which follows the guidelines detailed in the National Institutes of Health Belmont Report (1978) and the Declaration of Helsinki. […] The remaining pellet of mononuclear cells was resuspended, counted, and plated at 1×10^6 cells/ml in RPMI supplemented with FCS (10%) and penicillin/streptomycin (1%). […]
# RNA extraction from cells was carried out using a Purelink™ RNA kit (Invitrogen) according to the manufacturer's instructions. […] Isolated RNA was quantified using a NanoDrop 2000 spectrophotometer, and RNA concentration was normalised to the lowest concentration across all samples with RNAse-free water. If necessary, samples were DNAse-treated after quantification using DNAse I (Thermo Fisher) according to the manufacturer's instructions. […]
SMILES,IL-1β expression (BMDMs; LPS 4 h),Il10 expression (BMDMs; LPS 4 h),Tnfa expression (BMDMs; LPS 4 h),"Tmem173 expression (BMDMs; BMDMs pre-treated, LPS 4 h)","Ifnb1 expression following Nrf2 silencing (BMDMs; BMDMs, LPS 4 h)",IL10 expression (human PBMCs),Tnfa expression (human PBMCs),"Ddx58 expression (BMDMs; BMDMs pre-treated, LPS 4 h)","dependence of the FHIN1 IFN-β increase on NAC-sensitive redox stress (Ifnb1 expression) (BMDMs; BMDMs, in the presence of NAC, LPS 4 h)","dependence of FHIN1-driven GDF15 on NRF2 and ATF4 (BMDMs; BMDMs, silencing of Nrf2 or Atf4, LPS 4 h)","induction of IFN-β (Ifnb1) in MAVS knockout BMDMs (BMDMs; WT and Mavs−/− BMDMs, LPS 4 h)"
"COC(=O)/C=C/C(=O)OC [DMF, dimethyl fumarate]",reduced,decreased,increased,Suppression,increased,–,–,–,–,–,–
"CCOC(=O)[C@@]12CCCC=C1N(Cc1ccc(-c3ccccc3)cc1)C(=O)[C@H]2CC(=O)NC [FHIN1, Fumarate hydratase-IN-1]",reduced,decreased,increased,Suppression,increased,suppressed,increased,reduced,independent of NAC-sensitive redox stress,partly NRF2-but not ATF4-dependent,did not impair
